Results on 6 molecules are retold here after US11046716B2, “Beta-lactamase inhibitors” (priority 2015, dated 2021).

Assay [1] deals with E. coli expressing the Class A Extended Spectrum Beta-Lactamase (ESBL) CTX-M-15. Kind of assay: Broth microdilution MIC assay with ceftazidime, E. coli CTX-M-15. The conditions noted are these: Fixed CAZ (ceftazidime) 4 μg/mL; E. coli ESBL4 CTX-M-15. Type of assay: cell-based. In short, it runs like this: (§1)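 Test compounds in 2-fold dilutions (16 to 0.125 μg/mL final) in CAMHB were combined with a β-lactam at a static 4 μg/ml final. Plates were inoculated per CLSI broth microdilution with the β-lactamase-producing strain (pre-grown 3-5 h) and incubated 16-20 h at 37° C. MIC of test compound was read visually.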
In general terms: In broth dilution the organism is exposed to a series of concentrations in liquid medium.

The test system of assay [2] is E. cloacae expressing the Class C P99. Nature of the assay: Broth microdilution MIC assay with ceftazidime, E. cloacae P99. Particulars: Fixed CAZ (ceftazidime) 4 μg/mL; E. cl. 144200 p99 AmpC. Type of assay: cell-based. In short, it runs like this: as §1
Assay [3] concerns K. pneumoniae expressing the class A carbapenemase KPC-2 and the class B carbapenemase VIM-4. Nature of the assay: Broth microdilution MIC assay with meropenem, K. pneumoniae KPC-2 and VIM-4. Type of assay: cell-based. The conditions noted are these: Fixed Mero (meropenem) 4 μg/mL; K. p. A-1797 KPC-2 VIM-4. The procedure, abridged:
as §1

Another assay concerns the target OXA-48 (UniProt Q6XEC0). Nature of the assay: β-lactamase enzyme inhibition assay, Class D oxacillinase. It is filed as biochemical. The conditions noted are these: read-out: OXA-48.
In a further assay the target is T1, VIM-2 (Escherichia coli, UniProt Q5U7L7).
T1 construct: made in house; host or cells: E. coli BL21(DE3)
Nature of the assay: β-lactamase enzyme inhibition assay, VIM-2 (nitrocefin substrate). Type of assay: biochemical. The conditions noted are these: Class B; nitrocefin substrate, 486 nm; read-out: VIM-2. The procedure, abridged:
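Purified VIM-2 preincubated with inhibitor for 15 min at 37° C, then nitrocefin (100 μM final) added and absorbance at 486 nm followed for 10 min. Maximum hydrolysis rates compared with inhibitor-free controls; IC50 fitted from percent inhibition across inhibitor concentrations.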

The next assay addresses T2, KPC-2 (Klebsiella pneumoniae, UniProt Q9F663).
T2 construct: made in house; host or cells: E. coli BL21(DE3)
Kind of assay: β-lactamase enzyme inhibition assay, KPC-2 (imipenem substrate). It is filed as biochemical. The conditions noted are these: Class A; imipenem substrate, 300 nm; read-out: KPC-2. The procedure, abridged: (§2)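 Read-out is the rate of β-lactam ring hydrolysis monitored by absorbance: 300 nm for imipenem with KPC-2 and 260 nm for cefotaxime with SHV-5. Recombinant native enzymes were first incubated with compound at 37 °C for 15 min. The IC50 is the inhibitor concentration that halves the initial hydrolysis rate.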

The target in another assay is T3, SHV-5 (Klebsiella pneumoniae, UniProt P0A3M1).
T3 construct: made in house; host or cells: E. coli BL21(DE3)
Nature of the assay: β-lactamase enzyme inhibition assay, SHV-5 (cefotaxime substrate). It is filed as biochemical. The procedure, abridged:
as §2

Assay [4] deals with P. aeruginosa expressing the Class B carbapenemase VIM-2. Nature of the assay: Broth microdilution MIC assay with meropenem, P. aeruginosa VIM-2. It is filed as cell-based. Particulars: Fixed Mero (meropenem) 4 μg/mL; P. aerug. 2775 VIM-2. In short, it runs like this: as §1
Assay [5] relates to K. pneumoniae producing the Class D carbapenemase OXA-48. Kind of assay: Broth microdilution MIC assay with meropenem, K. pneumoniae OXA-48. Type of assay: cell-based. The conditions noted are these: Fixed Mero (meropenem) 4 μg/mL; K. p. 11978 OXA-48. In short, it runs like this:
as §1

The test system of assay [6] is K. pneumoniae expressing the Class A carbapenemase KPC-2. Kind of assay: Broth microdilution MIC assay with meropenem, K. pneumoniae KPC-2. It is filed as cell-based. Particulars: Fixed Mero (meropenem) 4 μg/mL; K. p. 156319 KPC-3. In short, it runs like this:
as §1

For another assay, the target named is T4, AmpC (Enterobacter cloacae, UniProt P05364).
T4 construct: made in house; host or cells: E. coli BL21(DE3)
Nature of the assay: β-lactamase enzyme inhibition assay, p99 AmpC (nitrocefin substrate). Type of assay: biochemical. The procedure, abridged: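 Read-out is the rate of β-lactam ring hydrolysis monitored by absorbance. Recombinant native enzymes were first incubated with compound at 37 °C for 15 min. The IC50 is the inhibitor concentration that halves the initial hydrolysis rate.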

A value given as a limit tells only on which side of the number the result lay.

T3 sequence (P0A3M1 22-286): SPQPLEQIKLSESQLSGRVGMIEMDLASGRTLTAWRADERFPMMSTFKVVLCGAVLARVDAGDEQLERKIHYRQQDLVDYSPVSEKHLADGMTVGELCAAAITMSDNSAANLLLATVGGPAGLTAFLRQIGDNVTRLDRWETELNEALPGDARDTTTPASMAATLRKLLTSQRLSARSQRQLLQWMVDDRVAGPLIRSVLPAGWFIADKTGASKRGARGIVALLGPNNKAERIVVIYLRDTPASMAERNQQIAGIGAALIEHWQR
T2 sequence (Q9F663 25-293, looked up): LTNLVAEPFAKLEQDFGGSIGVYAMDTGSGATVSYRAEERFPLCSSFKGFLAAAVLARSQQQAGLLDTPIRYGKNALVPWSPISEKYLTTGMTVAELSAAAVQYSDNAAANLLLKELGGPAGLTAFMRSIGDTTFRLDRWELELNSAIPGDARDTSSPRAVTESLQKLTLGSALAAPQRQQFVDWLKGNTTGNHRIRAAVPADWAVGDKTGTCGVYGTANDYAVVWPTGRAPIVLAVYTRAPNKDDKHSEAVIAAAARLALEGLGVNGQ
T4 sequence (P05364 21-381): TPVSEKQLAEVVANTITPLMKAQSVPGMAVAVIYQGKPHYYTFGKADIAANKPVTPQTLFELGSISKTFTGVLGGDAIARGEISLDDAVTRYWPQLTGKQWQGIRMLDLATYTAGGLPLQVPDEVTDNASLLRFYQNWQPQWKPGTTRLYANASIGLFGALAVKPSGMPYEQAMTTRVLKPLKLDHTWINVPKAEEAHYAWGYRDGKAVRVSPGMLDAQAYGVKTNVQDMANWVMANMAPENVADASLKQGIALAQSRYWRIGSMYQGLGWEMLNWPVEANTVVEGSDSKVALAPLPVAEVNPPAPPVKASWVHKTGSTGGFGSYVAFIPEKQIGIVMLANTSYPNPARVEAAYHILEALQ

Consider `NCCn1cnc(CC(=O)N[C@H]2Cc3cccc(C(=O)O)c3OB2O)n1` [Example 118, (R)-3-(2-(1-(2-aminoethyl)-1H-1,2,4-triazol-3-yl)acetamido)-2-hydroxy-3,4-dihydro-2H-benzo[e][1,2]oxaborinine-8-carboxylic acid], for which the “MIC (μg/mL) of Exemplary Compounds in presence of fixed β-lactams: E. coli ESBL4 CTX-M-15” value (“MIC (μg/mL) … E. coli ESBL4 CTX-M-15” for short) in assay [1] is recorded as “C (C represents an MIC of <1 μg/mL)”. For the same molecule, in [2], the “MIC (μg/mL) of Exemplary Compounds in presence of fixed β-lactams: E. cl. 144200 p99 AmpC” value (“MIC (μg/mL) … E. cl. 144200 p99 AmpC” for short) was “C (C represents an MIC of <1 μg/mL)”. Moreover, the “MIC (μg/mL) of Exemplary Compounds in presence of fixed β-lactams: K. p. A-1797 KPC-2 VIM-4” value (“MIC (μg/mL) … K. p. A-1797 KPC-2 VIM-4” for short) in assay [3] is “B (B represents an MIC between 1 and 16 μg/mL inclusive)”. In addition, the IC50 is 100 to 1000 nM on OXA-48; 1000 to 10000 nM at VIM-2; 100 to 1000 nM at KPC-2; 100 to 1000 nM against SHV-5; below 100 nM on AmpC. In [4], the “MIC (μg/mL) of Exemplary Compounds in presence of fixed β-lactams: P. aerug. 2775 VIM-2” value (shortened to “MIC (μg/mL) … P. aerug. 2775 VIM-2”) is on record as “C (C represents an MIC of <1 μg/mL)”. For the same molecule, in [5], the “MIC (μg/mL) of Exemplary Compounds in presence of fixed β-lactams: K. p. 11978 OXA-48” value (“MIC (μg/mL) … K. p. 11978 OXA-48” below) is “B (B represents an MIC between 1 and 16 μg/mL inclusive)”. The “MIC (μg/mL) of Exemplary Compounds in presence of fixed β-lactams: K. p. 156319 KPC-3” value (“MIC (μg/mL) … K. p. 156319 KPC-3” below) in assay [6] is given as “C (C represents an MIC of <1 μg/mL)”.

With `CN(C)CCn1nnnc1CC(=O)N[C@H]1Cc2cccc(C(=O)O)c2OB1O` [Example 49, (R)-3-(2-(1-(2-(dimethylamino)ethyl)-1H-tetrazol-5-yl)acetamido)-2-hydroxy-3,4-dihydro-2H-benzo[e][1,2]oxaborinine-8-carboxylic acid], the “MIC (μg/mL) … E. coli ESBL4 CTX-M-15” value in assay [1] is “C (C represents an MIC of <1 μg/mL)”. Besides, the “MIC (μg/mL) … E. cl. 144200 p99 AmpC” value in assay [2] is given as “C (C represents an MIC of <1 μg/mL)”. Further, the “MIC (μg/mL) … K. p. A-1797 KPC-2 VIM-4” value in assay [3] is “B (B represents an MIC between 1 and 16 μg/mL inclusive)”. Further, the IC50 at OXA-48 was 100 to 1000 nM; at VIM-2, 100 to 1000 nM; on KPC-2, below 100 nM; against SHV-5, below 100 nM; at AmpC it was below 100 nM. In addition, in assay [4], the “MIC (μg/mL) … P. aerug. 2775 VIM-2” value is “B (B represents an MIC between 1 and 16 μg/mL inclusive)”. Also, the “MIC (μg/mL) … K. p. 11978 OXA-48” value in assay [5] was “B (B represents an MIC between 1 and 16 μg/mL inclusive)”. The “MIC (μg/mL) … K. p. 156319 KPC-3” value in assay [6] is recorded as “C (C represents an MIC of <1 μg/mL)”.

Take `O=C(Cn1nnc(CC(=O)N[C@H]2Cc3cccc(C(=O)O)c3OB2O)n1)N[C@H]1CCNC1` [Example 44]: the “MIC (μg/mL) … E. coli ESBL4 CTX-M-15” value in [1] is “C (C represents an MIC of <1 μg/mL)”. The “MIC (μg/mL) … E. cl. 144200 p99 AmpC” value in assay [2] is on record as “C (C represents an MIC of <1 μg/mL)”. The “MIC (μg/mL) … K. p. A-1797 KPC-2 VIM-4” value in [3] was “B (B represents an MIC between 1 and 16 μg/mL inclusive)”. Also, the IC50 at OXA-48 was 100 to 1000 nM; on VIM-2, below 100 nM; on KPC-2, below 100 nM; against SHV-5 it was below 100 nM; at AmpC, below 100 nM. Besides, the “MIC (μg/mL) … P. aerug. 2775 VIM-2” value in assay [4] is on record as “C (C represents an MIC of <1 μg/mL)”. Further, the “MIC (μg/mL) … K. p. 11978 OXA-48” value in assay [5] is “B (B represents an MIC between 1 and 16 μg/mL inclusive)”. The “MIC (μg/mL) … K. p. 156319 KPC-3” value in assay [6] was “B (B represents an MIC between 1 and 16 μg/mL inclusive)”.

For `N=CNCc1cn(CC(=O)N[C@H]2Cc3cccc(C(=O)O)c3OB2O)nn1` [Example 22, (R)-3-(2-(4-(formimidamidomethyl)-1H-1,2,3-triazol-1-yl)acetamido)-2-hydroxy-3,4-dihydro-2H-benzo[e][1,2]oxaborinine-8-carboxylic acid], the “MIC (μg/mL) … E. coli ESBL4 CTX-M-15” value in assay [1] was “C (C represents an MIC of <1 μg/mL)”. The “MIC (μg/mL) … E. cl. 144200 p99 AmpC” value in assay [2] was “C (C represents an MIC of <1 μg/mL)”. Also, the “MIC (μg/mL) … K. p. A-1797 KPC-2 VIM-4” value in assay [3] is “B (B represents an MIC between 1 and 16 μg/mL inclusive)”. Also, the IC50 at OXA-48 is 1000 to 10000 nM; on VIM-2 it was 100 to 1000 nM; on KPC-2 it was 100 to 1000 nM; at SHV-5, 100 to 1000 nM; at AmpC, below 100 nM. Moreover, in assay [4], the “MIC (μg/mL) … P. aerug. 2775 VIM-2” value was “C (C represents an MIC of <1 μg/mL)”. In addition, the “MIC (μg/mL) … K. p. 11978 OXA-48” value in [5] is “B (B represents an MIC between 1 and 16 μg/mL inclusive)”. In [6], the “MIC (μg/mL) … K. p. 156319 KPC-3” value was “C (C represents an MIC of <1 μg/mL)”.

Regarding `NC1CN(C(=O)c2cn(CC(=O)N[C@H]3Cc4cccc(C(=O)O)c4OB3O)nn2)C1` [Example 80, (R)-3-(2-(4-(3-aminoazetidine-1-carbonyl)-1H-1,2,3-triazol-1-yl)acetamido)-2-hydroxy-3,4-dihydro-2H-benzo[e][1,2]oxaborinine-8-carboxylic acid], the “MIC (μg/mL) … E. coli ESBL4 CTX-M-15” value in assay [1] is given as “C (C represents an MIC of <1 μg/mL)”. Also, the “MIC (μg/mL) … E. cl. 144200 p99 AmpC” value in [2] is recorded as “C (C represents an MIC of <1 μg/mL)”. Moreover, the “MIC (μg/mL) … K. p. A-1797 KPC-2 VIM-4” value in assay [3] is “B (B represents an MIC between 1 and 16 μg/mL inclusive)”. Further, the IC50 at OXA-48 was 100 to 1000 nM; at VIM-2, 100 to 1000 nM; on KPC-2 it was below 100 nM; against SHV-5 it was below 100 nM; against AmpC, below 100 nM. Moreover, in assay [4], the “MIC (μg/mL) … P. aerug. 2775 VIM-2” value is reported as “C (C represents an MIC of <1 μg/mL)”. Also, in [5], the “MIC (μg/mL) … K. p. 11978 OXA-48” value is “B (B represents an MIC between 1 and 16 μg/mL inclusive)”. In addition, the “MIC (μg/mL) … K. p. 156319 KPC-3” value in [6] was “B (B represents an MIC between 1 and 16 μg/mL inclusive)”.

Turning to `NCCOCc1cn(CC(=O)N[C@H]2Cc3cccc(C(=O)O)c3OB2O)nn1` [Example 34, (R)-3-(2-(4-((2-aminoethoxy)methyl)-1H-1,2,3-triazol-1-yl)acetamido)-2-hydroxy-3,4-dihydro-2H-benzo[e][1,2]oxaborinine-8-carboxylic acid], the “MIC (μg/mL) … E. coli ESBL4 CTX-M-15” value in [1] was “C (C represents an MIC of <1 μg/mL)”. Besides, the “MIC (μg/mL) … E. cl. 144200 p99 AmpC” value in [2] is reported as “C (C represents an MIC of <1 μg/mL)”. Further, the “MIC (μg/mL) … K. p. A-1797 KPC-2 VIM-4” value in assay [3] was “B (B represents an MIC between 1 and 16 μg/mL inclusive)”. The IC50 at OXA-48 is 1000 to 10000 nM; at VIM-2 it was 100 to 1000 nM; at KPC-2, below 100 nM; against SHV-5, below 100 nM; on AmpC it was below 100 nM. Further, the “MIC (μg/mL) … P. aerug. 2775 VIM-2” value in [4] was “C (C represents an MIC of <1 μg/mL)”. The “MIC (μg/mL) … K. p. 11978 OXA-48” value in assay [5] was “B (B represents an MIC between 1 and 16 μg/mL inclusive)”. The “MIC (μg/mL) … K. p. 156319 KPC-3” value in assay [6] is “B (B represents an MIC between 1 and 16 μg/mL inclusive)”.
